These results are taken from patent publication US9440978B2, “Imidazolo-, oxazolo-, and thiazolopyrimidine modulators of TRPV1” (Janssen Pharmaceutica NV, priority 2007, dated 2016).

Where a name gives a salt, the structure may show the parent alone. Some results are limits rather than exact numbers.

One assay addresses T1, human TRPV1 (Homo sapiens, UniProt Q8NER1).
T1 construct: expressed in transfected cells; host or cells: HEK293
Briefly: Block of capsaicin-induced Ca2+ influx, human assay (hTRPV1/HEK293, FLIPR). It is filed as cell-based. The note with it: HEK293 cells transfected with human TRPV1; 150 nM capsaicin challenge; mean; > value = solubility limit in assay medium. As for the experimental part: (§1) HEK293 cells were transfected with human TRPV1 cloned in pcDNA3.1zeo(+) using the Effectene non-liposomal lipid based transfection kit (Qiagen) (hTRPV1/HEK293). hTRPV1/HEK293 cells were routinely grown as monolayers under selection in zeocin (200 μg/mL; Invitrogen) in Dulbecco's Modified Eagle Medium (DMEM, Gibco BRL) supplemented with 10% fetal bovine serum, and penicillin/streptomycin (50 units/mL) in 5% CO2 at 37° C. Cells were passaged frequently, every 3-5 days, to avoid overgrowth, depletion of essential medium components, or acidic medium exposure. Cells were passaged using a brief wash in 0.05% trypsin with 1 mM EDTA, followed by dissociation in divalent-free phosphate-buffered saline (Hyclone #SH30028.02). […] The assay buffer was composed of 130 mM NaCl, 2 mM KCl, 2 mM MgCl2, 10 mM HEPES, 5 mM glucose, and either 2 mM or 20 μM CaCl2. On the day of the experiment, the culture medium was replaced with 2 mM calcium assay buffer using an automated plate washer (ELx405; Biotek, VT). […] After loading the cells, the dye solution was replaced with 50 μL/well of 20 μM calcium assay buffer using the ELx405 plate washer. Test compounds (50 μL/well) were added to the plate and incubated for 30 min. Intracellular Ca^2+ levels were subsequently assayed using a Fluorometric Imaging Plate Reader (FLIPR™ instrument, Molecular Devices, CA) to simultaneously monitor Fluo-3 fluorescence in all wells (λexcitation=488 nm, λemission=540 nm) during challenge with agonist (capsaicin). The IC50 values were determined. […] The contents of the wells were mixed 3 times (40 μL mix volume) immediately after the additions were made. Concentration-dependence of block was determined by exposing each well of cells in duplicate rows of a 96-well plate to a serial dilution of test compound. The concentration series usually started at 10 μM with a three-fold serial decrement in concentration. The magnitude of the capsaicin response was determined by measuring the change in fluo3 fluorescence before and 100 seconds after the addition of the agonist. Data were analyzed using a non-linear regression program (Origin; OriginLab, MA).
(§2) IC50 values shown are the average (mean) of the results obtained. […] Compounds were tested as in the free base, trifluoroacetic acid salt, or hydrochloride salt form.

In a further assay the target is T2, rat TRPV1 (Rattus norvegicus, UniProt O35433).
T2 construct: expressed in transfected cells; host or cells: HEK293
T2 sequence (O35433 whole entry): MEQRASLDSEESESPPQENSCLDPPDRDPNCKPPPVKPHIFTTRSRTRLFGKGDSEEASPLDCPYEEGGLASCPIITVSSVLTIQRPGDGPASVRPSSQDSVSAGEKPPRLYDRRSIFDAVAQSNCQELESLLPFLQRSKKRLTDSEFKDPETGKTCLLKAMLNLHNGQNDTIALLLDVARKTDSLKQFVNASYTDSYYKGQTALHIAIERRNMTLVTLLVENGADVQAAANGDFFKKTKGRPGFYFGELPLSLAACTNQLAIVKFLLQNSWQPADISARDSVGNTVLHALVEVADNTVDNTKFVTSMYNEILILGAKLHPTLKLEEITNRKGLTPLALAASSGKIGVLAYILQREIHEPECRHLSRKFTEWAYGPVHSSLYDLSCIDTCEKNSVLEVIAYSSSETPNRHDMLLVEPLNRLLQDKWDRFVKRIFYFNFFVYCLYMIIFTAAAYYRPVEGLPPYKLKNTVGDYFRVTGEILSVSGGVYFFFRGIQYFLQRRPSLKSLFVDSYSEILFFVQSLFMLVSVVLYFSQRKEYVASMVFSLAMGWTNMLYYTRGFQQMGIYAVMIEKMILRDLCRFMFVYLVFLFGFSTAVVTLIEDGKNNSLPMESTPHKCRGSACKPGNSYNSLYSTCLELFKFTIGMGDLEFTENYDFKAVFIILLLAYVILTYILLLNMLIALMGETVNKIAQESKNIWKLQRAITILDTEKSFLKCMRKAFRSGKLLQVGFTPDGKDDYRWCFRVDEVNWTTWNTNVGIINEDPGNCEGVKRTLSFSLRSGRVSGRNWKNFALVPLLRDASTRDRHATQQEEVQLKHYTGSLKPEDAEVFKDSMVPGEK
Nature of the assay: Block of capsaicin-induced Ca2+ influx, rat assay (rTRPV1/HEK293, FLIPR). It counts as cell-based. The note with it: HEK293 cells transfected with rat TRPV1; capsaicin challenge; mean; > value = solubility limit in assay medium; read-out: Rat IC50. Here is the method:
as §1
This assay was performed similarly to the human assay described above, but using HEK293 cells transfected with rat TRPV1 (rTRPV1/HEK293).
as §2

T1 sequence (Q8NER1 whole entry): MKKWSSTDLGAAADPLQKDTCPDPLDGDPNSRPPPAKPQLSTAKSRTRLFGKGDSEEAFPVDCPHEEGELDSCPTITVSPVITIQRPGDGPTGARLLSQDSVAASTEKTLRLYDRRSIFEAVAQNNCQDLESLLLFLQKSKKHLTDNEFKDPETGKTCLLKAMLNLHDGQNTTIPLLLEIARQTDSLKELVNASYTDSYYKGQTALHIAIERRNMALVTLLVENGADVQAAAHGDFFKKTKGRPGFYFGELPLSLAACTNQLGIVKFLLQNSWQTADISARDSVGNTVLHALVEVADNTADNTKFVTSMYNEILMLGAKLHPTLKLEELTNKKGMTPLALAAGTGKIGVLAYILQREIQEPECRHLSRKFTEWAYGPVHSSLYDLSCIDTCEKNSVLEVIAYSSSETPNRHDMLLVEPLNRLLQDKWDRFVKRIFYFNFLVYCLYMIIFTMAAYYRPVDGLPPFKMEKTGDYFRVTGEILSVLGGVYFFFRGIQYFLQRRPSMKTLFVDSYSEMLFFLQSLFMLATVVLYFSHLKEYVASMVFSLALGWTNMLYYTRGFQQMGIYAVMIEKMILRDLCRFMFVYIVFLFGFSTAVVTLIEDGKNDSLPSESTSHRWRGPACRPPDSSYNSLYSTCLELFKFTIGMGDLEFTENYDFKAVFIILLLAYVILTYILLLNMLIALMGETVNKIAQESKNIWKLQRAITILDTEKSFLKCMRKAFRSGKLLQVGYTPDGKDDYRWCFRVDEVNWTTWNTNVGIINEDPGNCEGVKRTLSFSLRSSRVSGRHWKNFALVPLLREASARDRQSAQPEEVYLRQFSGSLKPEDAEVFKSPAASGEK

With `Cc1ccc(Nc2ncnc3sc(Cc4c(Cl)cccc4Cl)nc23)cc1` [Example 46, 2-(2,6-Dichlorobenzyl)-N-(4-methylphenyl)[1,3]thiazolo[5,4-d]pyrimidin-7-amine], the 50% inhibitory concentration (IC50) at human TRPV1 is > 6670 nM; on rat TRPV1, 52 nM.

`CC(C)(C(N)=O)c1ccc(Nc2ncnc3sc(Cc4c(Cl)cccc4Cl)nc23)cc1` [Example 47, 2-(4-{[2-(2,6-Dichlorobenzyl)[1,3]thiazolo[5,4-d]pyrimidin-7-yl]amino}phenyl)-2-methylpropanamide]: the results for the IC50 against human TRPV1 and at rat TRPV1 were 8900 nM and 4490 nM, respectively.

For `FC(F)(F)c1ccccc1Cc1nc2c(Nc3ccccc3)ncnc2s1` [Example 48, N-Phenyl-2-[2-(trifluoromethyl)benzyl][1,3]thiazolo[5,4-d]pyrimidin-7-amine], the IC50 was 852 nM at human TRPV1 and 410 nM at rat TRPV1.

Take `FC(F)(F)c1ccccc1Cc1nc2c(Nc3ccc(Br)cc3)ncnc2s1` [Example 49, N-(4-Bromophenyl)-2-[2-(trifluoromethyl)benzyl][1,3]thiazolo[5,4-d]pyrimidin-7-amine]: the IC50 against human TRPV1 came to 59 nM; at rat TRPV1, 16 nM.

With `CC(C)(C)c1ccc(Nc2ncnc3sc(Cc4ccccc4C(F)(F)F)nc23)cc1` [Example 50, N-(4-tert-Butylphenyl)-2-[2-(trifluoromethyl)benzyl][1,3]thiazolo[5,4-d]pyrimidin-7-amine], the IC50 on human TRPV1 amounted to 34 nM; at rat TRPV1 it was 6 nM.

Regarding `CS(=O)(=O)c1ccc(Nc2ncnc3sc(Cc4ccccc4C(F)(F)F)nc23)cc1` [Example 51, N-[4-(Methylsulfonyl)phenyl]-2-[2-(trifluoromethyl)benzyl][1,3]thiazolo[5,4-d]pyrimidin-7-amine], the results for the IC50 on human TRPV1 and at rat TRPV1 were 202 nM and 39 nM, respectively.

With `O=S(=O)(c1ccc(Nc2ncnc3sc(Cc4ccccc4C(F)(F)F)nc23)cc1)N1CCOCC1` [Example 52, N-[4-(Morpholin-4-ylsulfonyl)phenyl]-2-[2-(trifluoromethyl)benzyl][1,3]thiazolo[5,4-d]pyrimidin-7-amine], the IC50 came out at 59 nM against human TRPV1 and 44 nM at rat TRPV1.

As for `FC(F)(F)c1ccc(Nc2ncnc3sc(Cc4cccc(Cl)c4)nc23)cn1` [Example 53, 2-(3-Chlorobenzyl)-N-[6-(trifluoromethyl)pyridin-3-yl][1,3]thiazolo[5,4-d]pyrimidin-7-amine], the concentration for half-maximal inhibition (IC50) is 336 nM against human TRPV1 and 118 nM on rat TRPV1.

Regarding `FC(F)(F)c1ccc(Nc2ncnc3sc(Cc4cccc(Cl)c4)nc23)cc1` [Example 54, 2-(3-Chlorobenzyl)-N-[4-(trifluoromethyl)phenyl][1,3]thiazolo[5,4-d]pyrimidin-7-amine], the half-maximal inhibitory concentration (IC50) at human TRPV1 was determined as 252 nM; at rat TRPV1 it was 88 nM.

As to `Cc1cccc(C)c1Cc1nc2c(Nc3ccccc3)ncnc2s1` [Example 55, 2-(2,6-Dimethylbenzyl)-N-phenyl[1,3]thiazolo[5,4-d]pyrimidin-7-amine], the IC50 against human TRPV1 was 3440 nM; at rat TRPV1 it was 2860 nM.

For `Cc1cccc(C)c1Cc1nc2c(Nc3ccc(Br)cc3)ncnc2s1` [Example 56, N-(4-Bromophenyl)-2-(2,6-dimethylbenzyl)[1,3]thiazolo[5,4-d]pyrimidin-7-amine], the IC50 at human TRPV1 came out at 714 nM; at rat TRPV1, 475 nM.

In the case of `Cc1cccc(C)c1Cc1nc2c(Nc3ccc(C(C)(C)C)cc3)ncnc2s1` [Example 57, N-(4-tert-Butylphenyl)-2-(2,6-dimethylbenzyl)[1,3]thiazolo[5,4-d]pyrimidin-7-amine], the IC50 against human TRPV1 was found to be 252 nM; at rat TRPV1 it was 51 nM.

Take `Cc1cccc(C)c1Cc1nc2c(Nc3ccc(C(F)(F)F)cc3)ncnc2s1` [Example 58, 2-(2,6-Dimethylbenzyl)-N-[4-(trifluoromethyl)phenyl][1,3]thiazolo[5,4-d]pyrimidin-7-amine]: the IC50 against human TRPV1 came out at 75 nM; on rat TRPV1, 82 nM.

As for `Cc1cccc(C)c1Cc1nc2c(Nc3ccc(C(F)(F)F)nc3)ncnc2s1` [Example 59, 2-(2,6-Dimethylbenzyl)-N-[6-(trifluoromethyl)pyridin-3-yl][1,3]thiazolo[5,4-d]pyrimidin-7-amine], the figures for the IC50 on human TRPV1 and on rat TRPV1 were 139 nM and 183 nM, respectively.

Take `Cc1cccc(C)c1Cc1nc2c(Nc3ccc(S(=O)(=O)N4CCOCC4)cc3)ncnc2s1` [Example 60, 2-(2,6-Dimethylbenzyl)-N-[4-(morpholin-4-ylsulfonyl)phenyl][1,3]thiazolo[5,4-d]pyrimidin-7-amine]: the concentration for half-maximal inhibition (IC50) amounted to 209 nM on human TRPV1 and 204 nM on rat TRPV1.

Regarding `Cc1cccc(C)c1Cc1nc2c(Nc3ccc(S(C)(=O)=O)cc3)ncnc2s1` [Example 61, 2-(2,6-Dimethylbenzyl)-N-[4-(methylsulfonyl)phenyl][1,3]thiazolo[5,4-d]pyrimidin-7-amine], the figures for the half-maximal inhibitory concentration (IC50) on human TRPV1 and at rat TRPV1 were 496 nM and 253 nM, respectively.

Turning to `CS(=O)(=O)c1nc(Nc2ccc(C(F)(F)F)cc2)c2nc(Cc3c(Cl)cccc3Cl)sc2n1` [Example 62, [2-(2,6-Dichloro-benzyl)-5-methanesulfonyl-thiazolo[5,4-d]pyrimidin-7-yl]-(4-trifluoromethyl-phenyl)-amine], the IC50 is 72 nM at human TRPV1 and 32 nM on rat TRPV1.

As to `FC(F)(F)c1ccc(Nc2nc(N3CCOCC3)nc3sc(Cc4c(Cl)cccc4Cl)nc23)cc1` [Example 63, [2-(2,6-Dichloro-benzyl)-5-morpholin-4-yl-thiazolo[5,4-d]pyrimidin-7-yl]-(4-trifluoromethyl-phenyl)-amine], the results for the IC50 against human TRPV1 and at rat TRPV1 were > 6670 nM and 3560 nM, respectively.

`CC1CCCN1c1nc(Nc2ccc(C(F)(F)F)cc2)c2nc(Cc3c(Cl)cccc3Cl)sc2n1` (centres unmarked) [Example 64, [2-(2,6-Dichloro-benzyl)-5-(2-methyl-pyrrolidin-1-yl)-thiazolo[5,4-d]pyrimidin-7-yl]-(4-trifluoromethyl-phenyl)-amine]: the IC50 was found to be 466 nM on human TRPV1 and 323 nM at rat TRPV1.

For the compound `FC(F)(F)c1ccc(Nc2nc(NCCN3CCOCC3)nc3sc(Cc4c(Cl)cccc4Cl)nc23)cc1` [Example 65, 2-(2,6-Dichloro-benzyl)-N^5-(2-morpholin-4-yl-ethyl)-N^7-(4-trifluoromethyl-phenyl)-thiazolo[5,4-d]pyrimidine-5,7-diamine trifluoroacetic acid salt], the IC50 on human TRPV1 stood at 461 nM; at rat TRPV1 it was 266 nM.

Regarding `FC(F)(F)c1ccc(Nc2nc(NCC3CC3)nc3sc(Cc4c(Cl)cccc4Cl)nc23)cc1` [Example 66, N^5-Cyclopropylmethyl-2-(2,6-dichloro-benzyl)-N^7-(4-trifluoromethyl-phenyl)-thiazolo[5,4-d]pyrimidine-5,7-diamine], the figures for the IC50 against human TRPV1 and on rat TRPV1 were 249 nM and 103 nM, respectively.

For `CC(C)C1CCCN1c1nc(Nc2ccc(C(F)(F)F)cc2)c2nc(Cc3c(Cl)cccc3Cl)sc2n1` (centres unmarked) [Example 68, [2-(2,6-Dichloro-benzyl)-5-(2-isopropyl-pyrrolidin-1-yl)-thiazolo[5,4-d]pyrimidin-7-yl]-(4-trifluoromethyl-phenyl)-amine], the IC50 on human TRPV1 stood at 2320 nM; on rat TRPV1, 1690 nM.

As for `CC(C)CNc1nc(Nc2ccc(C(F)(F)F)cc2)c2nc(Cc3c(Cl)cccc3Cl)sc2n1` [Example 69, 2-(2,6-Dichloro-benzyl)-N^5-isobutyl-N^7-(4-trifluoromethyl-phenyl)-thiazolo[5,4-d]pyrimidine-5,7-diamine], the IC50 is 31 nM at human TRPV1 and 14 nM on rat TRPV1.

On to `FC(F)(F)c1ccc(Nc2nc(N3CCN(C4CCCC4)CC3)nc3sc(Cc4c(Cl)cccc4Cl)nc23)cc1` [Example 76, [5-(4-Cyclopentyl-piperazin-1-yl)-2-(2,6-dichloro-benzyl)-thiazolo[5,4-d]pyrimidin-7-yl]-(4-trifluoromethyl-phenyl)-amine trifluoroacetic acid salt], for which the IC50 on human TRPV1 amounted to 310 nM; on rat TRPV1 it was 74 nM.

As for `FC(F)(F)c1ccc(Nc2nc(N3CCC(N4CCCC4)CC3)nc3sc(Cc4c(Cl)cccc4Cl)nc23)cc1` [Example 77, [2-(2,6-Dichloro-benzyl)-5-(4-pyrrolidin-1-yl-piperidin-1-yl)-thiazolo[5,4-d]pyrimidin-7-yl]-(4-trifluoromethyl-phenyl)-amine trifluoroacetic acid salt], the figures for the IC50 against human TRPV1 and on rat TRPV1 were 1120 nM and 4340 nM, respectively.

By IC50 is commonly meant the concentration at which inhibition is half-maximal.
